Counter-ions that a name gives are not always drawn.

In one assay the target is T1, URAT-1 transporter (Homo sapiens, UniProt Q96S37).
T1 construct: expressed in transfected cells
Kind of assay: URAT-1 inhibitor activity: [14C]-uric acid uptake into CHO-URAT1(L)GFP#8 (CHO#8) cells, scintillation proximity.
Conditions: not given
The assay is classed as cell-based. Put shortly: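 CHO cells stably expressing human URAT1 long isoform C-terminally fused to eGFP, preincubated 1 hour in chloride-containing buffer, then 15 minutes with compound (0–10 μM, 0.25% DMSO) in chloride-free buffer pH 7.4. [14C]-uric acid at 30 nM final added; uptake read by scintillation proximity after three hours at room temperature, dark.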
In general terms: SPA uses beads or plates that emit light when radiolabelled molecules are held near them.
What is called IC50 is the concentration needed to halve the response being measured. A low value points to greater potency in that assay. As to `N#Cc1cc(S(=O)(=O)Nc2ncc(F)s2)ccc1Oc1ccc(C#N)c(C(F)(F)F)c1` [Example 140, 3-cyano-4-[4-cyano-3-(trifluoromethyl)phenoxy]-N-(5-fluoro-1,3-thiazol-2-yl)benzenesulfonamide], the IC50 was > 7300 nM.
Still for that read-out and setting: the same measure for `CCSc1ncccc1Oc1ccc(S(=O)(=O)Nc2ncns2)cc1C#N` [compound 255, trifluoroacetic acid salt]: 684 nM; for `O=S(=O)(Nc1nccs1)c1ccc(Oc2ccc(F)c(F)c2)c(F)c1` [compound 226]: > 10000 nM.
The compound `COc1ccc(Oc2cc(F)c(S(=O)(=O)Nc3nncs3)cc2Cl)cc1F` [compound 324] had an IC50 of 3280 nM.
`N#Cc1cc(S(=O)(=O)Nc2ncc(F)s2)ccc1Oc1ccc(F)c(F)c1F` [Example 121, 3-cyano-N-(5-fluoro-1,3-thiazol-2-yl)-4-(2,3,4-trifluorophenoxy)benzenesulfonamide] registered an IC50 of 1040 nM.
Take `COc1ccc(C)c(Oc2cc(F)c(S(=O)(=O)Nc3nncs3)cc2Cl)c1` [compound 327]: the IC50 was determined as 619 nM.
On to `CC(C)c1cccc(Oc2ccc(S(=O)(=O)Nc3ncc(F)s3)cc2C#N)c1` [Example 107, 3-cyano-N-(5-fluoro-1,3-thiazol-2-yl)-4-[3-(propan-2-yl)phenoxy]benzenesulfonamide], for which the IC50 is > 6780 nM.
`N#Cc1cc(S(=O)(=O)Nc2ncns2)ccc1Oc1cc(F)ccc1F` [Example 50, 3-cyano-4-(2,5-difluorophenoxy)-N-(1,2,4-thiadiazol-5-yl)benzenesulfonamide]: 2550 nM corresponded to half-maximal inhibition (IC50). This lies in the single-digit micromolar range.
In turn, `CC(C)Oc1ncc(Oc2ccc(S(=O)(=O)Nc3nncs3)cc2C#N)cc1Cl` [Example 333] registered an IC50 of 7540 nM.
For `N#Cc1cc(Oc2cc(F)c(S(=O)(=O)Nc3ncns3)cc2F)ccc1F` [compound 213], 2040 nM corresponded to half-maximal inhibition (IC50). Against the preceding compound, the IC50 is about 3.7-fold lower.
As to `CCc1cc(F)ccc1Oc1ccc(S(=O)(=O)Nc2ncc(F)s2)cc1C#N` [Example 131, 3-cyano-4-(2-ethyl-4-fluorophenoxy)-N-(5-fluoro-1,3-thiazol-2-yl)benzenesulfonamide], 297 nM corresponded to half-maximal inhibition (IC50). This IC50 is about 6.9-fold lower than that of the compound before.
As to `Cc1ccc(Oc2ccc(S(=O)(=O)Nc3ncc(F)s3)cc2C#N)c(Cl)c1` [Example 124, 4-(2-chloro-4-methylphenoxy)-3-cyano-N-(5-fluoro-1,3-thiazol-2-yl)benzenesulfonamide], the IC50 is > 6360 nM.
`O=S(=O)(Nc1ncns1)c1cc(Cl)c(Oc2ccc(Cl)cc2OC(F)(F)F)cc1F` [Example 151, 5-chloro-4-[4-chloro-2-(trifluoromethoxy)phenoxy]-2-fluoro-N-(1,2,4-thiadiazol-5-yl)benzenesulfonamide] displayed an IC50 of 508 nM.
Same read-out and setting: the result for `N#Cc1cc(S(=O)(=O)Nc2nccs2)ccc1Oc1cccc(CO)c1` [compound 177] reads 584 nM; that for `N#Cc1ccc(Oc2ccc(S(=O)(=O)Nc3nncs3)cc2C#N)cc1Cl` [compound 219], 426 nM.
Compound `Cc1ccc(F)c(Oc2ccc(S(=O)(=O)Nc3ncc(F)s3)cc2C#N)c1F` [Example 123, 3-cyano-4-(2,6-difluoro-3-methylphenoxy)-N-(5-fluoro-1,3-thiazol-2-yl)benzenesulfonamide] gave an IC50 of 1250 nM.
Consider `N#Cc1cc(S(=O)(=O)Nc2nccs2)ccc1Oc1ccc(F)c(F)c1` [Example 243, 3-cyano-4-(3,4-difluorophenoxy)-N-(1,3-thiazol-2-yl)benzenesulfonamide], for which it took 77 nM to reach half-maximal inhibition (IC50).
Regarding `COc1cc(C)cc(Oc2ccc(S(=O)(=O)Nc3ncns3)cc2C#N)c1` [compound 292], the IC50 worked out at 1130 nM.
Same read-out and setting: the result for `N#Cc1cc(S(=O)(=O)Nc2nccs2)ccc1Oc1ccc(Br)nc1` [compound 171] reads 671 nM.

Staying with this assay, now noted: inhibition of [14C]-uric acid (30 nM) uptake into CHO#8 cells; compound 0 to 10 μM; 4 parameter logistic fit.
In turn, “3-chloro-4-(4-chlorophenoxy)-N-(1,2,4-thiadiazol-5-yl)benzenesulfonamide diethylamine salt [Example 62]” came in with an IC50 of 722 nM.

The values above are taken from US20140315933A1, “CHEMICAL COMPOUNDS” (Pfizer Limited, priority 2013, published 2014).
